# Assay results published in patent publication US20110053897A1 (IRM LLC, priority 2009, published 2011).
# Target: T1, Syk kinase (Homo sapiens, UniProt P43405)
# T1 construct: purchased
# Test: Syk kinase inhibition, Caliper LabChip off-chip mobility-shift kinase assay
# Assay type: biochemical
# Conditions: Caliper LabChip assay; read-out: Syk Enzyme IC50
# Summary of the method: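 Purified Syk pre-incubated 15 min with compound in 100 mM HEPES pH 7.5, 1 mM DTT, 10 mM MgCl2 or MnCl2, 0.002% Brij-35, then 1.5 μM fluorescein peptide and ATP at apparent KM added; 1–1.5 h at room temperature, 4% DMSO, EDTA stop. Microfluidic mobility-shift product/substrate conversion gave % inhibition; IC50 from 12-point series (10–0.00003 μM) by 4-parameter fit.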
row,SMILES,IC50 [nM]
1,Cn1ccc2cc(Nc3nccc(O)n3)nc(N[C@H]3CC[C@@H](O)CC3)c2c1=O [compound 798],128
2,CC1(Nc2nc(-c3cnc(N)nc3)cc3ccn(CC4(CO)COC4)c(=O)c23)CCC1 [compound 933],25
3,Nc1ncc(-c2cc3ccn(CCO)c(=O)c3c(N[C@H]3CC[C@@H](O)CC3)n2)cn1 [compound 1028],14
4,CC1(Nc2nc(-c3cnc(N)nc3)cc3ccn(C4COC4)c(=O)c23)CCC1 [compound 931],15
5,O=c1c2c(N[C@H]3CC[C@@H](O)CC3)nc(Nc3cnccn3)cc2ccn1C1CS(=O)(=O)C1 [compound 1010],10
6,O=c1[nH]ccc2cc(Nc3cnccn3)nc(NC3CCC3)c12 [compound 767],3

# Further lines, results first:
row,IC50 [nM],SMILES
1,14,N#CCCn1ccc2cc(Nc3cnccn3)nc(N[C@H]3CC[C@@H](O)CC3)c2c1=O [compound 1002]
2,103,Cn1cc(-c2ccnc(Nc3cc4ccn(CCO)c(=O)c4c(NC(C)(C)C)n3)c2)cn1 [compound 830]
3,15,COCC(COC)n1ccc2cc(-c3cnc(N)nc3)nc(NC(C)(C)C)c2c1=O [compound 936]
4,213,CCn1ccc2cc(Nc3cnccn3)nc(Nc3ccc(C(=O)NCCO)cc3)c2c1=O [compound 831]
5,14,"COCCN1CCC(Oc2cc(Nc3cc4ccn(CCO)c(=O)c4c(NC(C)(C)C)n3)ncn2)CC1 [compound 647, 8-(tert-butylamino)-2-(2-hydroxyethyl)-6-(6-(1-(2-methoxyethyl)piperidin-4-yloxy)pyrimidin-4-ylamino)-2,7-naphthyridin-1(2H)-one]"
6,682,CC(C)(C)Nc1nc(Nc2cnccn2)cc2c(Cl)cn(CCO)c(=O)c12 [compound 823]
7,272,Cc1ccnc(Nc2cc3ccn(C(C)C)c(=O)c3c(NC(C)(C)C)n2)c1 [compound 821]
8,18,[2H]C([2H])([2H])n1ccc2cc(Nc3cnccn3)nc(NC3CC3)c2c1=O [compound 824]
9,27,CCn1ccc2cc(Nc3cnccn3)nc(NC(C)(C)CO)c2c1=O [compound 895]
10,42,CC(C)(C)Nc1nc(Nc2cc(CO)ccn2)cc2ccn(CCO)c(=O)c12 [compound 693]
11,22,CS(=O)(=O)CCn1ccc2cc(Nc3cnccn3)nc(N[C@H]3CC[C@H](O)CC3)c2c1=O [compound 982]
12,119,CCn1ccc2cc(Nc3cc(C)ccn3)nc(Nc3ccc(C(=O)N4CCC(O)C4)cc3)c2c1=O (stereo not drawn) [compound 836]
13,21,CCC(C)(C)Nc1nc(-c2cnc(N)nc2)cc2ccn(CCO)c(=O)c12 [compound 908]
14,84,CC(C)n1ccc2cc(Nc3cnccn3)nc(NC(C)(C)CO)c2c1=O [compound 820]
15,31,CC1(Nc2nc(Nc3cc(C(C)(C)O)ncn3)cc3ccn(CC(O)CO)c(=O)c23)CC1 (stereo not drawn) [compound 729]
16,314,"CC(C)(C)Nc1nc(Nc2cc(-c3c[nH]nc3C(F)(F)F)ncn2)cc2ccn(CCO)c(=O)c12 [compound 635, 8-(tert-butylamino)-2-(2-hydroxyethyl)-6-(6-(3-(trifluoromethyl)-1H-pyrazol-4-yl)pyrimidin-4-ylamino)-2,7-naphthyridin-1(2H)-one]"
17,793,"COc1ccc(Nc2cc3ccn(CCO)c(=O)c3c(NC(C)(C)C)n2)nc1 [Compound No. 606, 8-(tert-butylamino)-2-(2-hydroxyethyl)-6-(5-methoxypyridin-2-ylamino)-2,7-naphthyridin-1(2H)-one]"
18,102,"CCc1cc(Nc2cc3ccn(CCO)c(=O)c3c(NC(C)(C)C)n2)ncn1 [compound 619, 8-(tert-butylamino)-6-(6-ethylpyrimidin-4-ylamino)-2-(2-hydroxyethyl)-2,7-naphthyridin-1(2H)-one]"
19,431,CO/N=C(\C)c1ccnc(Nc2cc3ccn(CCO)c(=O)c3c(NC(C)(C)C)n2)c1 [compound 695]
20,94,CCn1ccc2cc(Nc3cc(C)ccn3)nc(N[C@@H]3CC[C@H](CO)C3)c2c1=O [compound 794]
21,111,Cc1cnccc1-c1ccnc(Nc2cc3ccn(CCO)c(=O)c3c(NC(C)(C)C)n2)c1 [compound 853]
22,42,CC(C)(C)Nc1nc(Nc2cc(C(C)(C)O)ncn2)cc2ccn(CC(O)CO)c(=O)c12 (stereo not drawn) [compound 730]
23,1130,CCn1ccc2cc(Nc3cnccn3)nc(Nc3ccc(C(=O)N4CCC(O)CC4)cc3)c2c1=O [compound 832]
24,111,CC[C@@H](CO)Nc1nc(Nc2cnccn2)cc2ccn(CC)c(=O)c12 [compound 1042]
25,45,CC1(Nc2nc(Nc3cc(C(C)(C)O)ccn3)cc3ccn(CCO)c(=O)c23)CCC1 [compound 704]
26,88,CCn1ccc2cc(Nc3cc(C)ccn3)nc(N[C@@H]3CC[C@@H](CO)C3)c2c1=O [compound 790]

# Same assay, conditions: read-out: Syk Enzyme IC50
row,SMILES,IC50 [nM]
1,COc1cncc(-c2cc3cc[nH]c(=O)c3c(Nc3ccc(C4CCN(C(=O)C(C)(C)N)CC4)c(C)c3)n2)n1 [compound 52],30
2,Cc1cc(Nc2nc(Nc3cc(Cl)ccn3)cc3cc[nH]c(=O)c23)ccc1C1CCN(C2CC2)CC1 [compound 257],170
3,Cc1ccnc(Nc2cc3cc[nH]c(=O)c3c(NC3CCOC3)n2)c1 (stereo not drawn) [compound 273],42
4,COCCN1CCC(c2ccc(Nc3nc(-c4cnc(C)nc4)cc4cc[nH]c(=O)c34)cc2C)CC1 [compound 71],14
5,COCCN1CCN(c2n[nH]c3cc(Nc4nc(-c5cnc(OC)nc5)cc5cc[nH]c(=O)c45)ccc23)CC1 [compound 216],37
6,CCN1CCN(CCc2ccc(Nc3nc(-c4cncc(OC)n4)cc4cc[nH]c(=O)c34)cc2)CC1C (stereo not drawn) [compound 33],34
7,CC[C@H](C)Nc1nc(Nc2ccccn2)cc2cc[nH]c(=O)c12 [compound 290],271
8,Cc1ccnc(Nc2cc3cc[nH]c(=O)c3c(N[C@@H]3CCC[C@H]3O)n2)c1 (racemic) [compound 267],56
9,CC(C)CNc1nc(Nc2ccccn2)cc2cc[nH]c(=O)c12 [compound 288],694
10,Cc1ccnc(Nc2cc3cc[nH]c(=O)c3c(N[C@H]3CCC[C@H]3O)n2)c1 (racemic) [compound 271],26
11,COc1cncc(-c2cc3cc[nH]c(=O)c3c(Nc3ccc(C4CCN(C(C)C(=O)NC(C)C)CC4)c(C)c3)n2)n1 (stereo not drawn) [compound 175],144
12,CCC(C)C(=O)N1CCC(c2ccc(Nc3nc(-c4cncc(OC)n4)cc4cc[nH]c(=O)c34)cc2C)CC1 (stereo not drawn) [compound 76],225
13,COc1cncc(-c2cc3cc[nH]c(=O)c3c(Nc3ccc(C4CNC4)cc3)n2)n1 [compound 145],6
14,Cc1ccc(Nc2cc3cc[nH]c(=O)c3c(Nc3ccc(CCN4CCCN(C)CC4)cc3)n2)nc1 [compound 552],390
15,COCCCN1CCC(c2ccc(Nc3nc(-c4cnc(OC)nc4)cc4cc[nH]c(=O)c34)cc2F)CC1 [compound 196],59
16,CN1CCCN(CCc2ccc(Nc3nc(-c4cncnc4)cc4cc[nH]c(=O)c34)cc2)CC1 [compound 435],86
17,COc1cncc(-c2cc3cc[nH]c(=O)c3c(Nc3ccc4c(c3)C3CNCC4C3)n2)n1 (stereo not drawn) [compound 96],1660
18,CN1CC(c2ccc(Nc3nc(-c4cncnc4)cc4cc[nH]c(=O)c34)cc2)C1 [compound 138],26
19,CCOCCN1CCC(c2ccc(Nc3nc(-c4cncc(OC)n4)cc4cc[nH]c(=O)c34)cc2C)CC1 [compound 85],78
20,Cc1ncc(-c2cc3cc[nH]c(=O)c3c(Nc3ccc(C4CCN(CCC#N)CC4)c(C)c3)n2)cn1 [compound 73],81
21,O=c1[nH]ccc2cc(C3=CCSCC3)nc(Nc3ccc(N4CCOCC4)cc3)c12 [compound 14],809
22,COc1cncc(-c2cc3cc[nH]c(=O)c3c(Nc3ccc(C4CCN(C(C)C(=O)O)CC4)c(C)c3)n2)n1 (stereo not drawn) [compound 117],22
23,COc1cncc(-c2cc3cc[nH]c(=O)c3c(Nc3ccc(C4CCN(CCC(=O)N5CCOCC5)CC4)c(C)c3)n2)n1 [compound 162],32

# Results, then the compound that gave them:
row,IC50 [nM],SMILES
1,70,Cc1ccnc(Nc2cc3cc[nH]c(=O)c3c(NC[C@@H](C)O)n2)c1 [compound 513]
2,580,Cn1ccc2cc(Nc3cnccn3)nc(Nc3cccc(C(N)=O)c3)c2c1=O [compound 477]
3,1630,Nc1nc(Nc2cnccn2)cc2ccn(Cc3ccccc3)c(=O)c12 [compound 478]
4,187,CCn1ccc2cc(Nc3cc(C)ccn3)nc(NC(C)C)c2c1=O [compound 191]
5,897,Cc1ccnc(Nc2cc3cc[nH]c(=O)c3c(N3CC[C@H](CO)C3)n2)c1 [compound 400]
6,140,CC(C)Nc1nc(-c2cnc(N)nc2)cc2ccn(CCO)c(=O)c12 [compound 32]
7,140,Cn1ccc2cc(Nc3cnccn3)nc(NCCCO)c2c1=O [compound 474]
8,60,CCn1ccc2cc(Nc3cnccn3)nc(NC(C)C)c2c1=O [compound 307]
9,316,CCn1ccc2cc(Nc3cnccn3)nc(N[C@H]3CC[C@@H](O)C3)c2c1=O [compound 425]
10,496,Cc1ccnc(Nc2cc3ccn(C)c(=O)c3c(Nc3ccc(C4CCN(CCS(C)(=O)=O)CC4)cc3)n2)c1 [compound 311]
11,748,CCN(CC)CCNC(=O)c1ccc(Nc2nc(Nc3cc(C)ccn3)cc3ccn(C)c(=O)c23)cc1 [compound 331]
12,250,CCCCNc1nc(Nc2cc(C)ccn2)cc2cc[nH]c(=O)c12 [compound 532]
13,85,Cc1ccnc(Nc2cc3ccn(CCO)c(=O)c3c(NC(C)C)n2)c1 [compound 313]
14,5680,Cc1ccnc(Nc2cc3cc[nH]c(=O)c3c(NCc3ccccc3)n2)c1 [compound 591]
15,114,CC(C)(CO)Nc1nc(Nc2cnccn2)cc2ccn(CCO)c(=O)c12 [compound 473]
16,302,[2H]C([2H])([2H])n1ccc2cc(Nc3cc(Cl)ccn3)nc(NC3CC3)c2c1=O [compound 519]
17,84,Cc1ccnc(Nc2cc3ccn(C)c(=O)c3c(NCCCO)n2)c1 [compound 503]
